{"source": "patent US12268632B2", "about": "“Self-retaining implantable drug delivery device” (GoldenBiotech, LLC, priority 2018, dated 2025)", "type_in_all_cases": "physicochemical", "key": {"[1]": {"assay": "Higuchi equation analysis of drug release (cumulative release vs square root of time)", "conditions": "coated drug-loaded silicone polymer matrices", "experimental": "In order to ascertain whether the mechanism of drug release was based on diffusion, data obtained from various coated silicone polymer matrices were analyzed using the Higuchi equation. This analysis determines the degree of proportionality between the cumulative amount of drug released and the square root of time (SQRT). […] As exemplified FIG. 10, data is plotted as the square root of time taken on the x-axis and the cumulative percentage of drug release on the y-axis."}, "[2]": {"assay": "Korsmeyer-Peppas analysis of drug release (log percent released vs log time)", "experimental": "To confirm the results obtained based on the Higuchi equation analysis, the data above was also analyzed using the Korsmeyer-Peppas plot, which evaluates the mechanism of drug release by plotting the log of percent drug released over the log time in hours. If n equals 0.45, then Fickian diffusion is indicated for a cylinder (0.42 for cylinder of low aspect ratio). […] As exemplified FIG. 11, data is plotted as the log of cumulative percent drug released on the y-axis and the log time in hours on the x-axis."}, "[3]": {"assay": "Chemical stability of prostaglandin analogues in PBS, RPHPLC", "conditions": "PBS at pH 4, 7 and 10 and at 4° C., 33° C. and 50° C.", "experimental": "The chemical stability of prostaglandin analogues was also examined. In these experiments, a prostaglandin analogue was incubated in phospho-buffered saline (PBS) at pH 4, 7 and 10 and at 4° C., 33° C. and 50° C. representing long term storage, eye temperature and accelerate temperature conditions respectively. Analyses were performed by RPHPLC as described in Example 2, noting any hydrolysis products formed. […] This stability is most likely due to the amide linkage in bimatoprost which is much more hydrolytically stable than the ester linkage in latanoprost and travoprost."}, "[4]": {"assay": "In vitro drug release from drug-loaded silicone polymer matrix in PBS pH 7.4 at 37° C., RPHPLC", "conditions": "uncoated silicone polymer matrix loaded with 10% latanoprost, FIG. 5", "experimental": "To test the controlled release properties of the disclosed drug-loaded silicone polymer matrices, the effects of a coating were examined. In these experiments, test samples were made as described in Example 1 to produce thin-disc-shaped drug-loaded polymer matrix. From this material, test samples were prepared by 1) cutting out rectangular polygons of about 3 mm length, about 1 mm width and about 1 mm height were cut from polymerized drug-loaded material; or 2) cutting out cylindrical plugs of about 3 mm length and having a diameter of about 0.5 mm to about 1 mm. The weight of the test samples was in the range of about 0.1 mg to about 4 mg.\nThese cut test samples were then coated using one of three procedures. […]\nTo examine the drug release properties of a test sample, each sample was placed in 2 mL Eppendorf tube containing 1.5 mL of Phosphate Buffered Saline, pH 7.4 (PBS). […] An aliquot of the removed PBS was then analyzed by reversed phase HPLC (RPHPLC) to determine the amount of drug released from the test sample during the incubation period. […] Peak detection and quantitation were determined by establishing a calibration curve using known amounts of each drug tested and the amount of drug present in the test sample aliquot interpolated from this calibration curve using ChemStation software."}, "[5]": {"assay": "Physical appearance and durometer mechanical properties of drug-loaded silicone polymer matrix test samples", "text": "To test the loading capacity of a silicone elastomer polymer matrix for a prostaglandin analogue, polymer matrix with different amounts and types of a prostaglandin analogue were made and the physical and mechanical properties of the resulting polymerized drug-loaded matrix were characterized (Tables 1-3). These polymer matrix test samples were made by mixing together a prostaglandin analogue, a liquid cyclic vinyl siloxane elastomer, a crosslinker, and a catalyst using a high-speed mixer and then heated the capped container at 70° C. for 24 hours to cure the mixture. A filler, such as a fumed silica, was also used to provide sufficient mechanical strength to the polymerized matrix. In addition, an inhibitor was used to slow the crosslinking reaction to a workable rate. The resulting thin-disc-shaped drug-loaded polymer matrix was allowed to cool to room temperature and then placed in 4° C. for 24 hours to increase stiffness of the material. The physical appearance of each drug-loaded polymer matrix test sample was examined visually and its mechanical properties analyzed using a durometer."}, "[6]": {"assay": "Release from post-loaded travoprost section of the implantable device", "conditions": "post loaded 3 mm section, uncoated, at 38 days", "experimental": "A central section of a self-retaining implantable drug delivery device disclosed herein was loaded with travoprost by cutting a 3 mm section of the device and then placed into 0.200 ml of hexanes for 3 hours. Following this period, the self-retaining implantable drug delivery device was placed immediately into 0.050 mL of a travoprost stock solution 25 mg/mL in ethanol and allowed to stand overnight. The following day, this section was washed sequentially by dipping into a water bath, followed by a 10% acetonitrile bath. It was dried at 80 C and set to release the following day. The section was allowed to release over a period of 38 days. The loading was determined to be approximately 13 mcg. […] This release profile is predicted by the Higuchi mechanism. This type of loading procedure we term post loading. The loaded section is coated with a poly(p-xylylene) polymer and two tiny holes are placed completely through the section. The section is then molded together with the two flanking sections of the stent to form the final product. The release from this modified stent follows a near zero order release in vitro and in vivo in preclinical animal models and clinical studies."}, "[7]": {"conditions": "Drug Loading 5%, coated drug-loaded silicone polymer matrices"}, "[8]": {"conditions": "Drug Loading 10%, coated drug-loaded silicone polymer matrices"}, "[9]": {"conditions": "Drug Loading 15%, coated drug-loaded silicone polymer matrices"}, "[10]": {"conditions": "Drug Loading 20%, coated drug-loaded silicone polymer matrices"}, "[11]": {"conditions": "Drug Loading 2.5%, coated drug-loaded silicone polymer matrices"}}}
{"compound": "CC(C)OC(=O)CCC/C=C\\C[C@@H]1[C@@H](CC[C@@H](O)CCc2ccccc2)[C@H](O)C[C@@H]1O", "note": "[Latanoprost, latanoprost]", "values": [{"measurement": "Average Linear Regression r^2 Value (Higuchi)", "setting": "[1]; Drug Loading 5%", "value": 0.964}, {"measurement": "Average Linear Regression r^2 Value (Higuchi)", "setting": "[1]; Drug Loading 10%", "value": 0.983}, {"measurement": "Average Linear Regression r^2 Value (Higuchi)", "setting": "[1]; Drug Loading 15%", "value": 0.990}, {"measurement": "Average Linear Regression r^2 Value (Higuchi)", "setting": "[1]; Drug Loading 20%", "value": 0.990}, {"measurement": "Average n Values (Korsmeyer-Peppas)", "setting": "[2]; [7]", "value": "0.504±"}, {"measurement": "Average n Values (Korsmeyer-Peppas)", "setting": "[2]; [8]", "value": "0.501±"}, {"measurement": "Average n Values (Korsmeyer-Peppas)", "setting": "[2]; [9]", "value": "0.712±"}, {"measurement": "Average n Values (Korsmeyer-Peppas)", "setting": "[2]; [10]", "value": "1.200±"}, {"measurement": "Average n Values (Korsmeyer-Peppas)", "setting": "[2]; Mean over drug loadings", "value": "0.57 ± 0.16"}, {"measurement": "chemical stability (hydrolysis)", "setting": "[3]", "value": "travoprost was significantly more stable than latanoprost"}, {"measurement": "release profile", "setting": "[4]", "value": "rapid release of the drug over the first five days, which then tapers off and by day 12 shows no further significant release"}, {"measurement": "amount that would not produce a satisfactory drug-loaded silicone polymer matrix", "setting": "[5]", "value": "≥ 25", "unit": "%"}, {"measurement": "physical appearance of silicone polymer matrix", "setting": "[5]; 25% test sample", "value": "exhibited more elasticity but had a surface with tacky attributes and a consistency that was not fully homogeneous"}]}
{"compound": "CC(C)OC(=O)CCC/C=C\\C[C@@H]1[C@@H](/C=C/[C@@H](O)COc2cccc(C(F)(F)F)c2)[C@H](O)C[C@@H]1O", "note": "[Travoprost, travoprost]", "values": [{"measurement": "Average Linear Regression r^2 Value (Higuchi)", "setting": "[1]; Drug Loading 2.5%", "value": 0.976}, {"measurement": "Average Linear Regression r^2 Value (Higuchi)", "setting": "[1]; Drug Loading 5%", "value": 0.972}, {"measurement": "Average Linear Regression r^2 Value (Higuchi)", "setting": "[1]; Drug Loading 10%", "value": 0.941}, {"measurement": "amount released", "setting": "[6]", "value": 99, "unit": "%"}, {"measurement": "Average n Values (Korsmeyer-Peppas)", "setting": "[2]; [11]", "value": "0.543±"}, {"measurement": "Average n Values (Korsmeyer-Peppas)", "setting": "[2]; [7]", "value": "0.507±"}, {"measurement": "Average n Values (Korsmeyer-Peppas)", "setting": "[2]; [8]", "value": "0.453±"}, {"measurement": "Average n Values (Korsmeyer-Peppas)", "setting": "[2]; Mean over drug loadings", "value": "0.50 ± 0.09"}, {"measurement": "chemical stability (hydrolysis)", "setting": "[3]", "value": "had the requisite stability"}, {"measurement": "amount that would not produce a satisfactory drug-loaded silicone polymer matrix", "setting": "[5]", "value": "≥ 15", "unit": "%"}, {"measurement": "physical appearance of silicone polymer matrix", "setting": "[5]; 15% and 20% test samples", "value": "exhibited more elasticity but had surfaces with tacky attributes and a consistency that was not fully homogeneous"}]}
{"compound": "CCNC(=O)CCC/C=C\\C[C@@H]1[C@@H](/C=C/[C@@H](O)CCc2ccccc2)[C@H](O)C[C@@H]1O", "note": "[Bimatoprost, bimatoprost]", "values": [{"measurement": "Average Linear Regression r^2 Value (Higuchi)", "setting": "[1]; Drug Loading 1%", "value": 0.992}, {"measurement": "Average Linear Regression r^2 Value (Higuchi)", "setting": "[1]; Drug Loading 2.5%", "value": 0.995}, {"measurement": "Average Linear Regression r^2 Value (Higuchi)", "setting": "[1]; Drug Loading 5%", "value": 0.997}, {"measurement": "Average Linear Regression r^2 Value (Higuchi)", "setting": "[1]; Drug Loading 10%", "value": 0.988}, {"measurement": "Average Linear Regression r^2 Value (Higuchi)", "setting": "[1]; Drug Loading 15%", "value": 0.994}, {"measurement": "Average Linear Regression r^2 Value (Higuchi)", "setting": "[1]; Drug Loading 20%", "value": 0.972}, {"measurement": "Average n Values (Korsmeyer-Peppas)", "setting": "[2]; Drug Loading 1%, coated drug-loaded silicone polymer matrices", "value": "0.326±"}, {"measurement": "Average n Values (Korsmeyer-Peppas)", "setting": "[2]; [11]", "value": "0.372±"}, {"measurement": "Average n Values (Korsmeyer-Peppas)", "setting": "[2]; [7]", "value": "0.411±"}, {"measurement": "Average n Values (Korsmeyer-Peppas)", "setting": "[2]; [8]", "value": "0.377±"}, {"measurement": "Average n Values (Korsmeyer-Peppas)", "setting": "[2]; [9]", "value": "0.380±"}, {"measurement": "Average n Values (Korsmeyer-Peppas)", "setting": "[2]; [10]", "value": "0.601±"}, {"measurement": "Average n Values (Korsmeyer-Peppas)", "setting": "[2]; Mean over drug loadings", "value": "0.37 ± 0.08"}, {"measurement": "chemical stability (hydrolysis)", "setting": "[3]", "value": "the most stable"}, {"measurement": "amount that would not produce a satisfactory drug-loaded silicone polymer matrix", "setting": "[5]", "value": "≥ 20", "unit": "%"}, {"measurement": "physical appearance of silicone polymer matrix", "setting": "[5]; 20% test sample", "value": "brittle and contained clumps of unincorporated components from the mixture"}]}
